Results from US20250090435A1, “PRESERVATIVES FOR COSMETIC AND PHARMACEUTICAL COMPOSITIONS” (priority 2021, published 2025).

Legend:
[1] = Solubility in aqueous systems; assay type: physicochemical; conditions: compared to 3-(heptyloxy)propane-1,2-diol
[2] = Thickening behavior study: viscosity of surfactant systems; assay type: physicochemical; conditions: for Viscosity: 12% AM, NaCl 1, pH 5.5, additive(s) at 1% w/w each; for Viscosity (change after each sequential addition) / Change in viscosity (symbol under Viscosity) / Viscosity (LV3/12 rpm): pH 5.5; for Change in viscosity (symbol under Viscosity) / Viscosity (LV3/12 rpm): 14% AM sodium coco sulfate/decyl glucoside system, additive(s) at 1% each
Description: Four formulations are shown in the four rightmost columns of Table 14 with ingredients indicated as a percentage by weight. The formulations differ in percentages of sodium chloride, 3-(heptyloxy)propane-1,2-diol, and 3-[(n-octyl)oxy]-1,2-propanediol.
A thickening behavior study was also performed in another basic surfactant system: Anionic/Non Ionic (APG—alkyl polyglucoside). Each column corresponds to a particular formulation with ingredients listed as a percentage by weight. The remainder was water, represented by Qs. % AM indicates % of active matter (e.g. % of dry surfactant).
A further thickening behavior study was performed in a different basic surfactant system: anionic/amphoteric (CAPB—Cocamidopropyl betaine). Each column corresponds to a particular formulation with ingredients listed as a percentage by weight. The remainder was water, represented by Qs. % AM indicates % of active matter (e.g. % of dry surfactant).
A further thickening behavior study was performed to compare sulfated surfactants and sulfate free surfactants. Each column corresponds to a particular formulation with ingredients listed as a percentage by weight. The remainder was water, represented by Qs. % AM indicates % of active matter (e.g. % of dry surfactant). Sodium chloride, 3-(heptyloxy)propane-1,2-diol, and 3-[(n-octyl)oxy]-1,2-propanediol were added sequentially with the change in viscosity measured after each addition and noted in Table 17 below.
A further thickening behavior study was performed to determine viscosity differences with and without salt (e.g. sodium chloride). Each column corresponds to a particular formulation with ingredients listed as a percentage by weight. The remainder was water, represented by Qs. % AM indicates % of active matter (e.g. % of dry surfactant).

[3] = Skin irritancy and skin sensitization
microbial growth = experiment: BIOLUMIX assay to screen for preventing microbial growth; assay type: cell-based; conditions: 1% by weight in cleansing wipe, emulsion wipe, cream, shampoo, roll-on deodorant
Text: Efficacy of the compositions in preventing microbial growth were screened with a BIOLUMIX assay. The BIOLUMIX assay produces a color change when carbon dioxide, indicative of microbial contamination, is detected in a sample. Non-preserved formulations without 3-(heptyloxy)propane-1,2-diol were used as negative controls, and formulations were used at particular percentages of 3-(heptyloxy)propane-1,2-diol by weight. Passing criteria is meeting criteria A in Table 5.

[4] = tested on: Staphylococcus epidermidis - code souchier C′; experiment: Roll-on deodorant challenge test (ISO 11930, odor-causing bacteria); assay type: cell-based; conditions: addition of 1% in natural roll-on deodorant
Description: The roll-on deodorant challenge tests shown below were conducted in accordance with ISO 11930 except that formulations were tested with bacteria Corynebacterium xerosis—code souchier M′ and Staphylococcus epidermidis—code souchier C′, which are two of the major odor-causing bacteria found in skin flora. The roll-on deodorant formulations used in the challenge tests are described in Tables 3 and 4 above. A non-preserved formulation without 3-(heptyloxy)propane-1,2-diol was used as a negative control, and the high concentration formulation with 1% 3-(heptyloxy)propane-1,2-diol by weight was tested.

[5] = Ammonium Lauryl Sulfate (ALS) 8/APG 4 system
[6] = Ammonium Lauryl Sulfate (ALS) 10/CAPB 2 system
[7] = Na Cocoyl Sulfate (SCS) 8/APG 4 system
[8] = Na Lauryl Ether Sulfate (SLES) 8/APG 4 system
[9] = Na Lauryl Ether Sulfate (SLES) 10/CAPB 2 system
[10] = Sulfate free: Na Cocoyl Glutamate 8/Decyl Glucoside 4, 12% AM, added sequentially NaCl 2, 3-(heptyloxy)propane-1,2-diol 1, 3-[(n-octyl)oxy]-1,2-propanediol 1
[11] = Sulfate free: Na Cocoyl Glycinate 8/Decyl Glucoside 4, 12% AM, added sequentially NaCl 2, 3-(heptyloxy)propane-1,2-diol 1, 3-[(n-octyl)oxy]-1,2-propanediol 1
[12] = Sulfate free: Na Lauroyl Sarcosinate 8/Decyl Glucoside 4, 12% AM, added sequentially NaCl 2, 3-(heptyloxy)propane-1,2-diol 1, 3-[(n-octyl)oxy]-1,2-propanediol 1
[13] = Sulfate free: Na Lauryl Glucose Carboxylate 8/Decyl Glucoside 4, 12% AM, added sequentially NaCl 2, 3-(heptyloxy)propane-1,2-diol 1, 3-[(n-octyl)oxy]-1,2-propanediol 1
[14] = Sulfate free: Na Lauryl Sulfoacetate 8/Decyl Glucoside 4, 12% AM, added sequentially NaCl 2, 3-(heptyloxy)propane-1,2-diol 1, 3-[(n-octyl)oxy]-1,2-propanediol 1
[15] = Sulfated: Ammonium Lauryl Sulfate 8/Decyl Glucoside 4, 12% AM, added sequentially NaCl 1, 3-(heptyloxy)propane-1,2-diol 1, 3-[(n-octyl)oxy]-1,2-propanediol 1
[16] = Sulfated: Na Coco Sulfate 8/Decyl Glucoside 4, 12% AM, added sequentially NaCl 1, 3-(heptyloxy)propane-1,2-diol 1, 3-[(n-octyl)oxy]-1,2-propanediol 1
[17] = Sulfated: Na Lauryl Ether Sulfate 8/Decyl Glucoside 4, 12% AM, added sequentially NaCl 1, 3-(heptyloxy)propane-1,2-diol 1, 3-[(n-octyl)oxy]-1,2-propanediol 1
[18] = Sulfated: Na Lauryl Sulfate 8/Decyl Glucoside 4, 12% AM, added sequentially NaCl 1, 3-(heptyloxy)propane-1,2-diol 1, 3-[(n-octyl)oxy]-1,2-propanediol 1

## CCCCCCCCOCC(O)CO (stereo not drawn) [3-[(n-octyl)oxy]-1,2-propanediol]
[1]
  solubility in aqueous systems: lower solubility in aqueous systems
[2]; [5]
  Viscosity: 550 cps
[2]; [6]
  Viscosity: 3250 cps
[2]; [7]
  Viscosity: 370 cps
[2]; [8]
  Viscosity: 50 cps
[2]; [9]
  Viscosity: 700 cps
[2]; [10]
  Viscosity (change after each sequential addition): ≈
[2]; [11]
  Viscosity (change after each sequential addition): ≈
[2]; [12]
  Viscosity (change after each sequential addition): ≈
[2]; [13]
  Viscosity (change after each sequential addition): ≈
[2]; [14]
  Viscosity (change after each sequential addition): ≈
[2]; [15]
  Viscosity (change after each sequential addition): ↑++
[2]; [16]
  Viscosity (change after each sequential addition): ↑++
[2]; [17]
  Viscosity (change after each sequential addition): ↑++
[2]; [18]
  Viscosity (change after each sequential addition): ↑++

## CCCCCCCOCC(O)CO (stereo not drawn) [3-(heptyloxy)propane-1,2-diol]
[3]
  skin irritancy: reduced/no skin irritancy
  skin sensitization: non-skin sensitizer
Microbial growth
  microbial growth in products: successfully blocks microbial growth
[2]; [5]
  Viscosity: 260 cps
[2]; [6]
  Viscosity: 2500 cps
[2]; [7]
  Viscosity: 130 cps
[2]; [8]
  Viscosity: 50 cps
[2]; [9]
  Viscosity: 200 cps
[2]; [10]
  Viscosity (change after each sequential addition): ≈
[2]; [11]
  Viscosity (change after each sequential addition): ≈
[2]; [12]
  Viscosity (change after each sequential addition): ≈
[2]; [13]
  Viscosity (change after each sequential addition): ≈
[2]; [14]
  Viscosity (change after each sequential addition): ≈
[2]; [15]
  Viscosity (change after each sequential addition): ↑+
[2]; [16]
  Viscosity (change after each sequential addition): ↑+
[2]; [17]
  Viscosity (change after each sequential addition): ↑+
[2]; [18]
  Viscosity (change after each sequential addition): ↑
[2]; With 1% NaCl
  Change in viscosity (symbol under Viscosity): ↑+
  Viscosity (LV3/12 rpm): 1600 cps
[2]; Without Salt
  Change in viscosity (symbol under Viscosity): ≈
[2]; Without Salt, base without additives 70 cps
  Viscosity (LV3/12 rpm): 80 cps
[4]
  speed of logarithmic reduction of bacteria: increases logarithmic reduction of bacteria such as Staphylococcus faster

## [Cl-].[Na+] [NaCl]
[2]; [10]
  Viscosity (change after each sequential addition): ≈
[2]; [11]
  Viscosity (change after each sequential addition): ↑
[2]; [12]
  Viscosity (change after each sequential addition): ≈
[2]; [13]
  Viscosity (change after each sequential addition): ≈
[2]; [14]
  Viscosity (change after each sequential addition): ≈
[2]; [15]
  Viscosity (change after each sequential addition): ↑
[2]; [16]
  Viscosity (change after each sequential addition): ↑
[2]; [17]
  Viscosity (change after each sequential addition): ↑
[2]; [18]
  Viscosity (change after each sequential addition): ↑

## [Cl-].[Na+] [Sodium Chloride]
[2]; With 1% NaCl
  Change in viscosity (symbol under Viscosity): ↑
  Viscosity (LV3/12 rpm): 280 cps
